Legend:
[1] = target: T1, B. bovis hexose transporter 1 (BboHT1) (Babesia bovis, UniProt B0LKY8); experiment: competition with […]D-glucose uptake in Xenopus oocytes at […] ([…] reduction); type: cell-based
T1 construct: full-length, 472 amino acid residues, Israel isolate, expressed in Xenopus laevis oocytes

[2] = target: T1, B. bovis hexose transporter 1 (BboHT1); experiment: radiotracer D-fructose uptake in Xenopus oocytes versus water-injected controls; type: cell-based
[3] = target: T1, B. bovis hexose transporter 1 (BboHT1); experiment: inhibition of […]D-glucose uptake in Xenopus oocytes expressing BboHT1; type: cell-based
[4] = substrate: OC[C@H]1OC(O)[C@H](O)[C@@H](O)[C@@H]1O; experiment: radiotracer D-glucose influx kinetics in Xenopus oocytes (Km); type: cell-based, Babesia bovis; details: hydroxyl positions at O-4 and O-6 important for ligand binding

Q: With `OC[C@H]1OC(O)C[C@@H](O)[C@@H]1O` (stereo partly drawn) [2-DOG, 2-deoxy-D-glucose] as the molecule, how does the “competition with [14C]D-glucose uptake in Xenopus oocytes at 10 mM (>50% reducti)” value [1] read?
A: 1-Deoxy-D-glucose, 2-deoxy-D-glucose, D-mannose (the 2-epimer of glucose), 3-deoxy-D-glucose, and 3-O-methyl-D-glucose all reduced D-glucose uptake via BboHT1

Q: How did the “competition with [14C]D-glucose uptake in Xenopus oocytes at 10 mM (>50% reducti)” value [1] turn out when `OC[C@H]1OC[C@H](O)[C@@H](O)[C@@H]1O` [1-DOG, 1-deoxy-D-glucose] was run?
A: 1-Deoxy-D-glucose, 2-deoxy-D-glucose, D-mannose (the 2-epimer of glucose), 3-deoxy-D-glucose, and 3-O-methyl-D-glucose all reduced D-glucose uptake via BboHT1

Q: For `OC[C@H]1OC(O)(CO)[C@@H](O)[C@@H]1O` (stereo partly drawn) [D-fructose], which “radiotracer D-fructose uptake in Xenopus oocytes versus water-injected controls” value [2] is on record?
A: D-Fructose uptake also increased in oocytes expressing BboHT1 when compared with uptake in water-injected controls

Q: Which Ki [3] does the source give for `C=CCCCCCCCCCO[C@H]1[C@H](O)[C@@H](CO)OC(O)[C@@H]1O` (stereo partly drawn) [compound 3361, 3-O-(undec-10-en)-yl-D-glucose] here?
A: 4.1 ± 0.9 µM

B1: B. bovis hexose transporter 1 (BboHT1) (Babesia bovis) (protein)
chain: MRSYFVYALALGALVAFNFGLNTVSFVASREFAVMDLGWCAGQDKLYECSRASTYSDIIAAGTFIGGAVGSLLIGYFAKFGRRKGMLIIHIINVIGSCMSTSASCFTMFLLGRLIAGVSVGASGVVAIYLSEICTNESRGKFGIVYPLFICIGQFLMVAWQLLHGRILGADNKVVTMDDLKTFDKFVWRMAQFWPVVFSIIAVVIMVFIVTDDTPYVLLNEGKEEEARSVISKLHGEENADAITAELKADIEAQKANSDKLSLLEALKVAQYRKVIFICCGLGIVQQFSGINIFVANASTLFISIMGRTVIANVMGLVGILCLMVTMISLSFFIEKFGRKTLLLAGIFVSSVFMVPAVIIKLAAGKDAKWAEYIMVTGCMGFMVGFAIGLGGVMWLYLAEAMGAEYKDAGFGLATCANWLFAAIVVMTSGMLIKFNENFTYALYAGFGVLGFVYVALLIKETKGIPLGQAYA
notes: full-length, 472 amino acid residues, Israel isolate, expressed in Xenopus laevis oocytes
Q: For B1, which Km [4] is on record?
A: 840 ± 540 µM
